Patent US20240099304A1, “SYNERGISTIC HERBICIDAL COMPOSITIONS OF METAMIFOP” (Parijat Industries (India) Private Limited, priority 2021, published 2024)

Assays:
Format in all cases: in vivo
Brachiaria eruciformis = test: Field efficacy on grass weed in soybean, post-emergence foliar application
Method: (§1) As described in the Herbicide Handbook of the Weed Science Society of America, Ninth Edition, 2007, p. 429, “synergism” [is] an interaction of two or more factors such that the effect when combined is greater than the predicted effect based on the response to each factor applied separately. In the Colby method, the expected (or predicted) response of a combination of herbicides is calculated by taking the product of the observed response for each individual component of the combination when applied alone divided by 100 and subtracting this value from the sum of the observed response for each component while applied alone. An unexpected enhancement in efficacy of the combination is then determined by comparing the observed response of the combination to the expected (or predicted) response as calculated from the observed response of each individual component alone. If the observed response of the combination is greater than the expected (or predicted) response, or stated conversely, if the difference between the observed and expected response is greater than zero, then the combination is said to be synergistic or unexpectedly effective. (Colby, S. R., Weeds, 1967(15), p. 20-22). The Colby method required only a single dose of each herbicide applied alone and the mixture of both doses.
(§2) Synergy Study: The following formula was used to calculate the expected activity of mixtures containing active ingredients, A and B:
(§3) • A=Observed efficacy of active ingredient (combination of Metamifop and Imidazolinone herbicides) A at the same concentration as used in the mixture. • B=observed efficacy of active ingredient B at the same concentration as used in the mixture. However, following formula was used to calculate the expected activity of mixtures containing three active ingredients, A, B and C:
(§4) • A=observed efficacy of active ingredient (combination of Metamifop and Imidazolinone herbicides) A at the same concentration as used in the mixture. • B=observed efficacy of active ingredient B at the same concentration as used in the mixture. • C=observed efficacy of active ingredient C at the same concentration as used in the mixture.
(§5) EFFICACY STUDY: The field experiments were carried out to test the synergy of the combination Metamifop, Imazethapyr, and Imazamox in India at various locations like in MP, Maharashtra, Karnataka, and Telangana on farmer's field against soybean weeds during Kharif season. The experiment comprising of 15 treatments including premixed binary and ternary combinations along with their stand-alone molecule using a randomized block design replicated thrice. All the treatments were applied as post-emergence foliar application when the weeds reached to two to four leaf stage. The spray was conducted with the help of Battery-operated Knapsack sprayer. The percentage efficacy was calculated after 14 and 21 days after application of herbicides.
(§6) The weeds present in the experimental fields were echinochloa conola, echinochloa crusgalli, brachiaria euriciformis, rottboellia cochinchinensis, cynodon dactylon, parthenium hyterophorus, digera arvensis, cynotis axillaris, acalypha indica, Commelina benghalensis, celosia argentia, cyperus spp.

Echinochloa crusgalli = test: as above
Method: as §1, §2, §3, §4, §5, §6

[1] = tested on: Rottboellia cochinchinensis; test: as above
Method: as §1, §2, §3, §4, §5, §6

Commelina benghalensis = test: Field efficacy on broad leaf weed in soybean, post-emergence foliar application
Method: as §1, §2, §3, §4, §5, §6

Cyanotis axillaris = test: as above
Method: as §1, §2, §3, §4, §5, §6

Parthenium hysterophorus = test: as above
Method: as §1, §2, §3, §4, §5, §6

Soybean = test: Phytotoxicity in Soybean, visual grading on 0-10 scale; design: key: visual phytotoxicity grade on 0-10 scale; conditions: Soybean
Method: as §5
Phytotoxic effect of herbicidal combination of Metamifop, Imazethapyr and Imazamox in soyabean: Table 5, 10 show the visual observations and grading on phytotoxicity which was recorded for leaf injury on tip/surface, Epinasty/Hyponasty, and wilting etc. on 0-10 scale (as below) at 1, 3, 7, 14 and 21 days after application of the present herbicidal composition.

[2] = tested on: hard to kill broad leaf weeds; test: Field efficacy, summary on broad leaf weeds
Method: as §1, §5

Structure (SMILES): C[C@@H](Oc1ccc(Oc2nc3ccc(Cl)cc3o2)cc1)C(=O)N(C)c1ccccc1F [Metamifop]
- % Weed control burn down symptoms generation Observed (Brachiaria eruciformis; 14 DAA, Metamifop 80 gm ai/ha): 84%
- % Weed control burn down symptoms generation Observed (Brachiaria eruciformis; 14 DAA, Metamifop 90 gm ai/ha): 88%
- % Weed control burn down symptoms generation Observed (Brachiaria eruciformis; 21 DAA, Metamifop 80 gm ai/ha): 78%
- % Weed control burn down symptoms generation Observed (Brachiaria eruciformis; 21 DAA, Metamifop 90 gm ai/ha): 81%
- % Weed control burn down symptoms generation Observed (Echinochloa crusgalli; 14 DAA, Metamifop 80 gm ai/ha): 80%
- % Weed control burn down symptoms generation Observed (Echinochloa crusgalli; 14 DAA, Metamifop 90 gm ai/ha): 83%
- % Weed control burn down symptoms generation Observed (Echinochloa crusgalli; 21 DAA, Metamifop 80 gm ai/ha): 74%
- % Weed control burn down symptoms generation Observed (Echinochloa crusgalli; 21 DAA, Metamifop 90 gm ai/ha): 77%
- % Weed control burn down symptoms generation Observed ([1]; 14 DAA, Metamifop 80 gm ai/ha): 67%
- % Weed control burn down symptoms generation Observed ([1]; 14 DAA, Metamifop 90 gm ai/ha): 70%
- % Weed control burn down symptoms generation Observed ([1]; 21 DAA, Metamifop 80 gm ai/ha): 70%
- % Weed control burn down symptoms generation Observed ([1]; 21 DAA, Metamifop 90 gm ai/ha): 72%
- % Weed control burn down symptoms generation Observed (Commelina benghalensis; 14 DAA, Metamifop 80 gm ai/ha): 0%
- % Weed control burn down symptoms generation Observed (Commelina benghalensis; 14 DAA, Metamifop 90 gm ai/ha): 0%
- % Weed control burn down symptoms generation Observed (Commelina benghalensis; 21 DAA, Metamifop 80 gm ai/ha): 0%
- % Weed control burn down symptoms generation Observed (Commelina benghalensis; 21 DAA, Metamifop 90 gm ai/ha): 0%
- % Weed control burn down symptoms generation Observed (Cyanotis axillaris; 14 DAA, Metamifop 80 gm ai/ha): 0%
- % Weed control burn down symptoms generation Observed (Cyanotis axillaris; 14 DAA, Metamifop 90 gm ai/ha): 0%
- % Weed control burn down symptoms generation Observed (Cyanotis axillaris; 21 DAA, Metamifop 80 gm ai/ha): 0%
- % Weed control burn down symptoms generation Observed (Cyanotis axillaris; 21 DAA, Metamifop 90 gm ai/ha): 0%
- % Weed control burn down symptoms generation Observed (Parthenium hysterophorus; 14 DAA, Metamifop 80 gm ai/ha): 0%
- % Weed control burn down symptoms generation Observed (Parthenium hysterophorus; 14 DAA, Metamifop 90 gm ai/ha): 0%
- % Weed control burn down symptoms generation Observed (Parthenium hysterophorus; 21 DAA, Metamifop 80 gm ai/ha): 0%
- % Weed control burn down symptoms generation Observed (Parthenium hysterophorus; 21 DAA, Metamifop 90 gm ai/ha): 0%
- Phytotoxicity score (Soybean; 1 DAA, Metamifop 80 gm ai/ha): 0
- Phytotoxicity score (Soybean; 1 DAA, Metamifop 90 gm ai/ha): 0
- Phytotoxicity score (Soybean; 3 DAA, Metamifop 80 gm ai/ha): 0
- Phytotoxicity score (Soybean; 3 DAA, Metamifop 90 gm ai/ha): 0
- Phytotoxicity score (Soybean; 7 DAA, Metamifop 80 gm ai/ha): 0
- Phytotoxicity score (Soybean; 7 DAA, Metamifop 90 gm ai/ha): 0
- Phytotoxicity score (Soybean; 14 DAA, Metamifop 80 gm ai/ha): 0
- Phytotoxicity score (Soybean; 14 DAA, Metamifop 90 gm ai/ha): 0
- Phytotoxicity score (Soybean; 21 DAA, Metamifop 80 gm ai/ha): 0
- Phytotoxicity score (Soybean; 21 DAA, Metamifop 90 gm ai/ha): 0
- Control on targeted weeds, applied alone ([2]; at 14 days): no or very less control
- Control on targeted weeds, applied alone ([2]; at 21 days): no or very less control

Structure (SMILES): COCc1cnc(C2=NC(C)(C(C)C)C(=O)N2)c(C(=O)O)c1 (centres unmarked) [Imazamox]
- % Weed control burn down symptoms generation Observed (Brachiaria eruciformis; 14 DAA, Imazamox 20 gm ai/ha): 0%
- % Weed control burn down symptoms generation Observed (Brachiaria eruciformis; 14 DAA, Imazamox 30 gm ai/ha): 0%
- % Weed control burn down symptoms generation Observed (Brachiaria eruciformis; 14 DAA, Imazamox 35 gm ai/ha): 0%
- % Weed control burn down symptoms generation Observed (Brachiaria eruciformis; 21 DAA, Imazamox 20 gm ai/ha): 0%
- % Weed control burn down symptoms generation Observed (Brachiaria eruciformis; 21 DAA, Imazamox 30 gm ai/ha): 0%
- % Weed control burn down symptoms generation Observed (Brachiaria eruciformis; 21 DAA, Imazamox 35 gm ai/ha): 0%
- % Weed control burn down symptoms generation Observed (Echinochloa crusgalli; 14 DAA, Imazamox 20 gm ai/ha): 0%
- % Weed control burn down symptoms generation Observed (Echinochloa crusgalli; 14 DAA, Imazamox 30 gm ai/ha): 0%
- % Weed control burn down symptoms generation Observed (Echinochloa crusgalli; 14 DAA, Imazamox 35 gm ai/ha): 0%
- % Weed control burn down symptoms generation Observed (Echinochloa crusgalli; 21 DAA, Imazamox 20 gm ai/ha): 0%
- % Weed control burn down symptoms generation Observed (Echinochloa crusgalli; 21 DAA, Imazamox 30 gm ai/ha): 0%
- % Weed control burn down symptoms generation Observed (Echinochloa crusgalli; 21 DAA, Imazamox 35 gm ai/ha): 0%
- % Weed control burn down symptoms generation Observed ([1]; 14 DAA, Imazamox 20 gm ai/ha): 0%
- % Weed control burn down symptoms generation Observed ([1]; 14 DAA, Imazamox 30 gm ai/ha): 0%
- % Weed control burn down symptoms generation Observed ([1]; 14 DAA, Imazamox 35 gm ai/ha): 0%
- % Weed control burn down symptoms generation Observed ([1]; 21 DAA, Imazamox 20 gm ai/ha): 0%
- % Weed control burn down symptoms generation Observed ([1]; 21 DAA, Imazamox 30 gm ai/ha): 0%
- % Weed control burn down symptoms generation Observed ([1]; 21 DAA, Imazamox 35 gm ai/ha): 0%
- % Weed control burn down symptoms generation Observed (Commelina benghalensis; 14 DAA, Imazamox 20 gm ai/ha): 0%
- % Weed control burn down symptoms generation Observed (Commelina benghalensis; 14 DAA, Imazamox 30 gm ai/ha): 4%
- % Weed control burn down symptoms generation Observed (Commelina benghalensis; 14 DAA, Imazamox 35 gm ai/ha): 6%
- % Weed control burn down symptoms generation Observed (Commelina benghalensis; 21 DAA, Imazamox 20 gm ai/ha): 0%
- % Weed control burn down symptoms generation Observed (Commelina benghalensis; 21 DAA, Imazamox 30 gm ai/ha): 0%
- % Weed control burn down symptoms generation Observed (Commelina benghalensis; 21 DAA, Imazamox 35 gm ai/ha): 0%
- % Weed control burn down symptoms generation Observed (Cyanotis axillaris; 14 DAA, Imazamox 20 gm ai/ha): 0%
- % Weed control burn down symptoms generation Observed (Cyanotis axillaris; 14 DAA, Imazamox 30 gm ai/ha): 0%
- % Weed control burn down symptoms generation Observed (Cyanotis axillaris; 14 DAA, Imazamox 35 gm ai/ha): 0%
- % Weed control burn down symptoms generation Observed (Cyanotis axillaris; 21 DAA, Imazamox 20 gm ai/ha): 0%
- % Weed control burn down symptoms generation Observed (Cyanotis axillaris; 21 DAA, Imazamox 30 gm ai/ha): 0%
- % Weed control burn down symptoms generation Observed (Cyanotis axillaris; 21 DAA, Imazamox 35 gm ai/ha): 0%
- % Weed control burn down symptoms generation Observed (Parthenium hysterophorus; 14 DAA, Imazamox 20 gm ai/ha): 0%
- % Weed control burn down symptoms generation Observed (Parthenium hysterophorus; 14 DAA, Imazamox 30 gm ai/ha): 0%
- % Weed control burn down symptoms generation Observed (Parthenium hysterophorus; 14 DAA, Imazamox 35 gm ai/ha): 0%
- % Weed control burn down symptoms generation Observed (Parthenium hysterophorus; 21 DAA, Imazamox 20 gm ai/ha): 0%
- % Weed control burn down symptoms generation Observed (Parthenium hysterophorus; 21 DAA, Imazamox 30 gm ai/ha): 0%
- % Weed control burn down symptoms generation Observed (Parthenium hysterophorus; 21 DAA, Imazamox 35 gm ai/ha): 0%
- Phytotoxicity score (Soybean; 1 DAA, Imazamox 20 gm ai/ha): 0
- Phytotoxicity score (Soybean; 1 DAA, Imazamox 30 gm ai/ha): 0
- Phytotoxicity score (Soybean; 1 DAA, Imazamox 35 gm ai/ha): 0
- Phytotoxicity score (Soybean; 3 DAA, Imazamox 20 gm ai/ha): 0
- Phytotoxicity score (Soybean; 3 DAA, Imazamox 30 gm ai/ha): 0
- Phytotoxicity score (Soybean; 3 DAA, Imazamox 35 gm ai/ha): 0
- Phytotoxicity score (Soybean; 7 DAA, Imazamox 20 gm ai/ha): 0
- Phytotoxicity score (Soybean; 7 DAA, Imazamox 30 gm ai/ha): 0
- Phytotoxicity score (Soybean; 7 DAA, Imazamox 35 gm ai/ha): 0
- Phytotoxicity score (Soybean; 14 DAA, Imazamox 20 gm ai/ha): 0
- Phytotoxicity score (Soybean; 14 DAA, Imazamox 30 gm ai/ha): 0
- Phytotoxicity score (Soybean; 14 DAA, Imazamox 35 gm ai/ha): 0
- Phytotoxicity score (Soybean; 21 DAA, Imazamox 20 gm ai/ha): 0
- Phytotoxicity score (Soybean; 21 DAA, Imazamox 30 gm ai/ha): 0
- Phytotoxicity score (Soybean; 21 DAA, Imazamox 35 gm ai/ha): 0
- Control on targeted weeds, applied alone ([2]; at 14 days): no or very less control
- Control on targeted weeds, applied alone ([2]; at 21 days): no or very less control
